# Conditions: not given
Compound,melting point [°C],boiling point [°C],log10 vapour pressure (mmHg),log10 Koa,ready biodegradability,log10 Henry constant (atm·m³/mol),log10 biodegradation half-life (days),log10 Koc (L/kg)
COCCOc1c(OC)cc(Cc2cnc(N)nc2N)cc1OC,154,–,–,–,–,–,–,–
S=C(SC(=S)N1CCCCC1)N1CCCCC1,110,–,–,–,–,–,–,–
CC(CC(=O)O)CC(=O)O,87,–,–,–,–,–,–,–
CCCOC(=O)c1ccccc1,-51.6,211,-0.867,–,–,–,–,–
CC(=O)CCCC(C)C,–,167,–,–,–,–,–,–
Clc1ccc(Oc2cc(Cl)cc(Cl)c2)cc1,–,–,-3.76,–,–,–,–,–
C=CCCCCCCC,-81.3,147,0.732,3.83,not readily biodegradable,–,–,–
CC(C)S[C@@H]1O[C@H](CO)[C@H](O)[C@H](O)[C@H]1O,121,–,–,–,–,–,–,–
CCC(=O)C(CC(C)N1CCOCC1)(c1ccccc1)c1ccccc1 (stereo not drawn),75.5,–,–,–,–,–,–,–
C=C1CC[C@@]2(O)[C@H]3Cc4ccc(O)c5c4[C@@]2(CCN3CC2CC2)[C@H]1O5,189,–,–,–,–,–,–,–
CCCC(C)(C)c1ccccc1,–,206,–,–,–,–,–,–
CC#CCCCCCC,–,162,–,–,–,–,–,–
CCCCCCCCCCC=CCCCCCCCC(=O)O,23,–,–,–,–,–,–,–
C=CC(=O)OCC(C)C,-61,132,0.907,–,–,–,–,–
c1ccc(-c2cccc(-c3ccccc3)c2)cc1,87,363,-4.76,–,–,–,–,–
Nc1c(Oc2ccc(Br)cc2)cc(O)c2c1C(=O)c1ccccc1C2=O,–,–,–,–,not readily biodegradable,–,–,–
Nc1ccccc1Nc1ccccc1,79.5,313,–,–,–,–,–,–
CCC1CCC1,-143,70.8,–,–,–,–,–,–
C=CC1CC2C=CC1C2 (stereo not drawn),-80,140,0.992,–,–,–,–,–
CCC(C)Cc1ccccc1 (stereo not drawn),–,195,–,–,–,–,–,–
COc1cc(Cl)c(Cl)c(Cl)c1OC,66,–,–,–,–,–,–,–
O=C1CCN(c2ccccc2)N1,126,–,–,–,–,–,–,–
CC(Cl)(Cl)CCl,–,124,–,–,–,–,–,–
Cc1cc2ccccc2cc1C,105,268,-2.96,–,readily biodegradable,-3.04,1.18,–
O=C1OCCC1N(C(=O)C1CC1)c1cccc(Cl)c1 (stereo not drawn),95,–,–,–,–,–,–,–

Compound,melting point [°C],boiling point [°C],log10 vapour pressure (mmHg),log10 Koa,ready biodegradability,log10 Henry constant (atm·m³/mol),log10 biodegradation half-life (days),log10 Koc (L/kg)
CCCCCCCCCCCCCCCCCCCCCCCCCCCCCCO,88,–,–,–,–,–,–,–
Clc1cccc(-c2cc(Cl)c(Cl)cc2Cl)c1,–,–,–,–,–,-4,–,–
O=C1NC(=O)c2cc([N+](=O)[O-])ccc21,201,–,–,–,–,–,–,–
C#CCCC(C)C,-125,92,–,–,–,–,–,–
CNc1ccc([N+](=O)[O-])cc1,152,–,–,–,–,–,–,–
CCC1(C)CC1,-130,56.8,–,–,–,–,–,–
c1ccc2cc3c(cc2c1)-c1cccc2cccc-3c12,217,480,-9.02,–,not readily biodegradable,-6.23,2.55,4.34
O=C(O)CCCCc1ccccc1,57.5,–,–,–,–,–,–,–
O=C(Nc1cccc(N(CCO)CCO)c1)c1ccccc1,–,–,–,–,not readily biodegradable,–,–,–
c1cc2c(cn1)CCCC2,146,218,–,–,–,–,–,–
c1ccc(-c2coc(-c3ccccc3)n2)cc1,103,339,–,–,–,–,–,–
C=Cc1ccc(N)cc1,23.5,–,–,–,–,–,–,–
NNC(=O)c1ccncc1,171,–,–,–,–,–,–,–
CC[C@@H]1C(=O)OC[C@@H]1Cc1cncn1C.Cl,204,–,–,–,–,–,–,–
C=C(C(=O)O)C(F)(F)F,51.5,–,–,–,–,–,–,–
Cc1cccnn1,184,214,–,–,–,–,–,–
COc1ccccc1-c1ccccc1OC,–,308,–,–,–,–,–,–
CCOc1ccc(NS(=O)(=O)c2ccc(N)cc2)nn1,183,–,–,–,–,–,–,–
CCCCCCCCCCCCCC(O)CC (stereo not drawn),50,–,–,–,–,–,–,–
CN1CCN(C(=O)OC2c3nccnc3C(=O)N2c2ccc(Cl)cn2)CC1 (stereo not drawn),178,–,–,–,–,–,–,–
Nc1cccc2nsnc12,68,–,–,–,–,–,–,–
O=Nc1c(O)ccc2ccccc12,110,–,–,–,–,–,–,–
CCCCCCCCCCCCCCCCCCCCCC,44.4,369,-5.89,–,readily biodegradable,–,2.1,–
O=NN1CCCC1,–,214,-1.22,–,–,–,–,–
C/C=N/O,45,115,–,–,–,–,–,–

Compound,melting point [°C],boiling point [°C],log10 vapour pressure (mmHg),log10 Koa,ready biodegradability,log10 Henry constant (atm·m³/mol),log10 biodegradation half-life (days),log10 Koc (L/kg)
Cc1ccc(C(=O)C(C)CN2CCCCC2)cc1 (stereo not drawn),176,–,–,–,–,–,–,–
C[N+](C)(C)OP(=O)([O-])OP(=O)(O)OC[C@H]1O[C@@H](n2ccc(N)nc2=O)[C@H](O)[C@@H]1O,–,–,–,–,readily biodegradable,–,–,–
O=C[C@@H](O)C(O)CO (stereo in doubt),129,–,–,–,–,–,–,–
CC(C)COC(OCC(C)C)OCC(C)C,–,223,–,–,–,–,–,–
CCCCCCCN,-18,156,0.438,–,–,–,–,–
CCCCCCCCCCCCCS,–,291,-3.16,–,–,–,–,–
OCCNCO,–,–,–,–,readily biodegradable,–,–,–
CCC(C)=C(C)C,-118,97.5,1.7,–,–,–,–,–
Cc1ccncc1,3.66,145,0.761,–,–,-5.22,–,–
O=[N+]([O-])c1cc(C2CCCCC2)c(O)c([N+](=O)[O-])c1,107,–,–,–,–,–,–,–
COc1ccc(N)cc1,57.2,243,-1.52,–,readily biodegradable,-7.18,–,1.93
C[Si](C)(C)N=C=N[Si](C)(C)C,-23,164,–,–,–,–,–,–
O=C1CCCCCCCCCCCCCCO1,32,–,–,–,–,–,–,–
O=S(=O)(Cl)CCCl,–,202,–,–,–,–,–,–
CCOP(=O)(OCC)OC(=CCl)c1ccc(Cl)cc1Cl,-20,–,-5.12,–,–,–,–,2.47
CCC=CC(C)C,–,–,1.88,–,–,–,–,–
O[Si](c1ccccc1)(c1ccccc1)c1ccccc1,155,–,–,–,–,–,–,–
Cc1cccc2c1CCCC2,-23,234,–,–,–,–,–,–
NS(=O)(=O)c1cc2c(s1)S(=O)(=O)CCC2=O,242,–,–,–,–,–,–,–
Nc1nc(N)nc(N)n1,–,–,-9.44,–,not readily biodegradable,–,–,–
CC[C@H]1CC[C@H]2[C@@H]3CC[C@@H]4CCCC[C@]4(C)[C@H]3CC[C@]12C,84,–,–,–,–,–,–,–
CCNC(C)=O,–,205,–,–,readily biodegradable,–,–,–
CC(C)(C)c1cc(CO)cc(C(C)(C)C)c1O,140,–,–,–,not readily biodegradable,–,–,–
FC(F)OC(F)F,-123,6.35,–,–,–,–,–,–
Ic1ccccc1,-31.3,188,0.0253,–,–,–,–,3.1

Compound,melting point [°C],boiling point [°C],log10 vapour pressure (mmHg),log10 Koa,ready biodegradability,log10 Henry constant (atm·m³/mol),log10 biodegradation half-life (days),log10 Koc (L/kg)
Cc1c(Cl)c(=O)oc2cc(OP(=O)(OCCCl)OCCCl)ccc12,91,–,–,–,–,–,–,–
BrCC(Br)(Br)Br,0,–,–,–,–,–,–,–
Cc1ccccc1Br,-27.8,182,0.0186,–,–,–,–,–
O=C(O)c1ccc2c(c1)CCCC2,156,–,–,–,–,–,–,–
CCOCOCC,-66.5,88,1.53,–,–,–,–,–
O=[N+]([O-])c1ccccc1-c1ccccc1,37.2,320,–,–,–,–,–,–
O=C(O)c1ccc(F)c(F)c1,123,–,–,–,–,–,–,–
C=CCCO,–,114,–,–,–,–,–,–
Cc1cccs1,-63.4,113,1.4,–,–,-2.62,–,–
CCC(C)(O)CCC(C)C (stereo not drawn),–,173,–,–,–,–,–,–
COc1ccc(/C=C/NC=O)cc1,132,–,–,–,–,–,–,–
CCc1cccc2c1CCCC2,-44.5,245,–,–,–,–,–,–
Cc1cc(Br)ccc1N,59.5,240,–,–,–,–,–,–
CCCCCC(=O)CC,–,168,0.301,–,–,–,–,–
CCCCCCBr,-84.7,155,0.591,–,–,–,–,–
O=c1ccc2cc(Cl)ccc2o1,165,–,–,–,–,–,–,–
CC(C)c1ccccc1Cl,-74.4,191,–,–,–,–,–,–
Cc1ccc(O)c(O)c1,65,251,–,–,not readily biodegradable,–,–,–
Nc1ccc(Cc2ccc(N)c(Cl)c2Cl)c(Cl)c1Cl,–,–,–,–,not readily biodegradable,–,–,–
ClCCOCCOCCCl,-31.5,232,-1.22,–,not readily biodegradable,–,–,–
CN(C)C,–,2.87,3.21,–,readily biodegradable,-3.98,–,–
O=[N+]([O-])c1ccc(O[C@@H]2O[C@H](CO)[C@H](O)[C@H](O)[C@H]2O)cc1,189,–,–,–,–,–,–,–
Cc1ccccc1I,–,212,-0.344,–,–,–,–,–
CCCCCCCCCCCCCCC(C)O (stereo not drawn),44,314,–,–,–,–,–,–
CC1=NNC(=O)N(/N=C/c2cccnc2)C1,217,–,–,–,–,–,–,–

# Same assay, conditions: fish
Compound,log10 BCF,log10 biotransformation half-life (days)
C=CCCCCCCC,3.17,0.52
Nc1c(Oc2ccc(Br)cc2)cc(O)c2c1C(=O)c1ccccc1C2=O,2.05,–
Clc1cc(Cl)c2c(oc3c(Cl)cc(Cl)c(Cl)c32)c1Cl,2.96,–
Cc1cc2ccccc2cc1C,–,0.03
c1ccc2cc3c(cc2c1)-c1cccc2cccc-3c12,–,-0.06
Clc1ccc(-c2cc(Cl)c(Cl)c(Cl)c2Cl)c(Cl)c1,–,2.34
O[Si](c1ccccc1)(c1ccccc1)c1ccccc1,–,0.07
Nc1nc(N)nc(N)n1,0.58,–
